Earlier results in patent US20210393650A1, “Designing Treatments for Chemotherapy-Induced and Age-Related Menopausal Symptoms Using Combinations of Natural Products and Prescription Medications” (Tess Ventures, Inc., priority 2018, published 2021).

Legend:
[1] = test system: ovariectomized rat
[2] = test system: humans; details: for effect on anxiety: humans, low to moderate doses
[3] = test system: CB1 receptor; details: centrally-mediated, through the CB1 receptor
[4] = test system: postmenopausal women; details: human, in vivo

## COc1cc(/C=C/C(=O)CC(=O)/C=C/c2ccc(O)c(OC)c2)ccc1O [curcumin]
[1]
  tail skin temperature: significant suppression

## CCCCCc1cc(O)c2c(c1)OC(C)(C)C1CCC(C)=CC21 (stereo not shown) [Δ^9-THC, 6,6,9-trimethyl-3-pentyl-6a,7,8,10a-tetrahydrobenzo[c]chromen-1-ol]
[2]
  effect on anxiety: anxiolytic effects
[2]; insomnia
  effect on sleep quality: enhance short-term sleep quality
[3]
  effect on body temperature: hypothermic effect

## OCCOc1ccc(/C(=C(/CCCl)c2ccccc2)c2ccccc2)cc1 [ospemifene, Z-2-[4-(4-chloro-1,2-diphenyl-but-1-enyl)-phenoxy]ethanol]
[4]
  treatment of VVA symptoms versus local estrogen: equivalent to or better than local estrogen

## C=C(C)[C@@H]1CCC(C)=C[C@H]1c1c(O)cc(CCCCC)cc1O [CBD, 2-[(1R,6R)-3-methyl-6-prop-1-en-2-ylcyclohex-2-en-1-yl]-5-pentyl-benzene-1,3-diol]
[2]
  effect on anxiety: anxiolytic effects
[2]; medium to high doses
  effect on insomnia: sedative effect
